The source of these data is patent publication US20050287232A1, “Skin immune function controlling agents” (priority 1999, published 2005).

SMILES strings stand for the structures. Several values for one entry are separate records, joined by “and”; a condition that tells them apart may be missing. Identical values can stand only once. Like-named read-outs stand apart in the source and are kept apart here.

The subject of assay [1] is Langerhans' cells in the epidermis. The assay is described as follows: Staining of Langerhans' cells after stress imposition with perfume inhalation. The format is in vivo, mice. The note with it: DMMB at the time of stress imposition, FIG. 5. As for the experimental part:
(§1) Epidermal Langerhans' cells were stained according to the well-known method. In brief, an ear of a mouse was incubated in a 3.8% aqueous solution of ammonium thioisocyanate at 37° C. for 20 minutes to separate the epidermis from the corium. The epidermal sheet was fixed with acetone and incubated in the culture supernatant of mouse hybridoma M5/114.15.2 (American Tissue Type Collection, Rockville, Md., USA) so as to cause the secretion of anti-I-A IgG. Then, the anti-I-A IgG was combined with fluorescein isothiocyanate (FITC) (Sigma, USA)-labeled anti-mouse IgG antibody. Cells positive for the I-A antigen were observed under a confocal laser scanning microscope (MRC600; Bio Rad, USA) and analyzed. Samples were collected from each group of five mice. Three regions of each sample were analyzed by a blind test.
Female C57 BL/6 mice (aged 7-9 weeks) (purchased from Charles River Japan) were used. Each group of five animals were placed in a cage (225×335×140 mm) and kept in a chamber maintained at a temperature of 21-25° C. and a relative humidity of 40-70%. The inhalation of a perfume into the animals was carried out by placing a Petri dish having a diameter of 10 cm in the cage, putting therein a filter paper impregnated with the perfume, and covering the dish with wire netting. […]

Assay [2] concerns contact hypersensitivity reaction. The assay is described as follows: CH reaction under restraint stress with perfume inhalation. The format is in vivo, mice. Particulars: for Swelling: DMMB inhalation, individual animals, right ear minus left ear thickness; for Average (swelling): DMMB, average of 5 values of Table III (1), given there in × 0.01 mm. On the procedure: Female C57 BL/6 mice (aged 7-9 weeks) (purchased from Charles River Japan) were used. Each group of five animals were placed in a cage (225×335×140 mm) and kept in a chamber maintained at a temperature of 21-25° C. and a relative humidity of 40-70%. The inhalation of a perfume into the animals was carried out by placing a Petri dish having a diameter of 10 cm in the cage, putting therein a filter paper impregnated with the perfume, and covering the dish with wire netting. (A filter paper impregnated with no perfume was used for a control group.) These animals were laid in a prone position and wrapped in a pliable fine-meshed wire net for 6 hours. This animal experiment gained the approval of the animal experimentation committee of our company following the National Research Council Guidelines.
Mice were sensitized by applying 2,4,6-trinitrochlorobenzene (TNCB) (10 μl of a 3% acetone solution) to the inner and outer surfaces of the left ear of each mouse. After 5 days, a CH reaction was provoked by applying TNCB (5 μl of a 1% acetone solution) to the inner and outer surfaces of the right ear of each mouse. After 24 hours, the swelling was evaluated by measuring the thicknesses of both ears with a micrometer (manufactured by Mitsutoyo) and subtracting the thickness of the left ear from that of the right ear. The exposure of the animals to a perfume was continued over a period of time extending from 24 hours before provocation to the measurement of the swelling. The restraint stress was imposed 24 hours before provocation and repeated immediately after provocation. This experiment was carried out by using the animals in groups of five and using 1,3-dimethoxy-5-methylbenzene (DMMB; purchased from Takasago International Inc.) as the perfume.
The values given in Table III, (1) are values obtained by subtracting the measured thickness of the left ear of each test animal from that of the right ear thereof.

Assay [3] relates to adenylate cyclase. Particulars: olfactory cells of rats; Boekhoff et al. 1990; cited from earlier work.
Assay [4] concerns adenylate cyclase. The note with it: olfactory cells of frogs; Sklar et al. 1986; cited from earlier work.
Assay [5] has as its system contact hypersensitivity reaction. As to the kind of experiment: Contact hypersensitivity (CH) reaction induced and provoked with TNCB; perfume inhalation or topical application. It is filed as in vivo, mice. As for the experimental part: Female C57 BL/6 mice (aged 7-9 weeks) were used. Each group of five animals were placed in a cage (225×335×140 mm) and kept in a chamber maintained at a temperature of 21-25° C. and a relative humidity of 40-70%. The inhalation of a perfume into the animals was carried out by placing a Petri dish having a diameter of 10 cm in the cage, putting therein a filter paper impregnated with the perfume, and covering the dish with wire netting. (A filter paper impregnated with no perfume was used for a control group.) This animal experiment followed the National Research Council Guidelines. […] After 5 days (on experimental day 6), a contact hypersensitivity reaction was provoked by applying 5 μl of a 1% acetone solution of the aforesaid antigen to both sides of the right ear of each animal. The contact hypersensitivity (hereinafter referred to as CH) reaction was evaluated by measuring the thickness of the swollen left and right ears on day 7 with a micrometer and calculating the difference between the measured values. In order to examine the effect of perfume inhalation at the time of sensitization, a Petri dish containing a filter paper impregnated with the aforesaid perfume was placed in the cage over a period of time extending from day 0 to day 2. In order to examine the effect of perfume inhalation at the time of immunity provocation, the aforesaid Petri dish was placed in the cage over a period of time extending from day 5 to day 7. In order to examine the effect of the direct application of a perfume to the skin, 50 μl of 0.1% […] or diluent (50% corn oil in acetone) was applied to a region to be sensitized, and the aforesaid antigen was applied thereto after 6 hours. The long-term effect was tested by applying 50 μl of 1% perfume or diluent every day over a period of time extending from day 0 to day 2.

Assay [6] concerns Epidermal Langerhans' cells. As to the kind of experiment: Staining of epidermal Langerhans' cells (I-A antigen) after perfume exposure. The format is in vivo, mouse. As for the experimental part: as §1, with “Female C57 BL/6 mice (aged 7-9 weeks) were used. Each group of five animals were placed in a cage (225×335×140 mm) and kept in a chamber maintained at a temperature of 21-25° C. and a relative humidity of 40-70%. The inhalation of a perfume into the animals was carried out by placing a Petri dish having a diameter of 10 cm in the cage, putting therein a filter paper impregnated with the perfume, and covering the dish with wire netting. (A filter paper impregnated with no perfume was used for a control group.) This animal experiment followed the National Research Council Guidelines. Epidermal” for “Epidermal”

Where [7] appears, read: Table I, after exposure to citralva, SD in parentheses.
Setting [8] is: Table II, animals kept in the presence of citralva or lyral/lilial, SD in parentheses.

Regarding `COc1cc(C)cc(OC)c1` [DMMB, 1,3-dimethoxy-5-methylbenzene], the entries for the “number of Langerhans' cells” value in assay [1] (compared with group without stress imposition) and in assay [1] (compared with stress imposition alone) were “of the same order” and “significantly increased”, respectively. Moreover, the Swelling is 17 × 0.01 mm (2×) and 18 × 0.01 mm and 15 × 0.01 mm and 14 × 0.01 mm in assay [2] (Restrained); 17 × 0.01 mm (2×) and 16 × 0.01 mm (2×) and 13 × 0.01 mm in assay [2] (Unrestrained). Further, the “Average (swelling)” value in assay [2] (Restrained) came out at 16.2; in assay [2] (Unrestrained) it was 15.38. Besides, the “suppression of the skin immune reaction by stress” value in assay [2] (animal group having undergone DMMB inhalation, Table III, FIG. 4) is on record as “not observed”.
On to `CC(C)=CCCC(C)=CC#N` [citralva, 3,7-dimethyl-2,6-octadienenitrile], for which the adenylate cyclase activation entry in the assay on adenylate cyclase [3] is listed as “activates adenylate cyclase”. The adenylate cyclase activation result in the assay with adenylate cyclase [4] was “activates adenylate cyclase”. Further, the “influence of topical application on the CH reaction” value in assay [5] (direct application to the skin, 50 μl of 0.1% or 1% perfume, FIG. 3) is on record as “neither citralva nor lyral/lilial exerts an influence on the CH reaction”. The “suppression of the induction of the CH reaction” value in assay [5] (inhalation, exposure for 2 days at the time of induction (day 0 to day 2), FIG. 1 B) is “about 20%”. In addition, the “suppression of the provocation of the CH reaction” value in assay [5] (inhalation, exposure for 2 days at the time of provocation (day 5 to day 7), compared with controls, FIG. 1 A) is “about 50%”. In assay [5] (perfume inhalation, FIG. 2), the “effect on CH reaction, citralva compared with lyral/lilial” value was “significantly more powerful than that of lyral/lilial” and the “effect on the provocation of a CH reaction” value is recorded as “suppress the CH reaction”. For the same compound, in assay [6] (setting [7]), the Area per cell was 172.0 (78.3) μm^2, the “Intensity of I-A” value is 89.9 (2.9), the “Number of LC” value is 119.8 (15.0) per mm^2 and the Number of dendrites is 4.40 (0.92). Further, the “effect on Langerhans' cells, comparison of perfumes” value in assay [6] (Table II) was “more powerful effect than lyral/lilial”. Moreover, in assay [6] (setting [8]), the “Intensity of I-A” value is 84.9 (3.1) and the Number of dendrites was 2.56 (0.12). For the same compound, the “change in number of LC” value in assay [6] (after exposure to citralva, versus control (Table I)) was “significantly decreased”. The “change in area of each I-A-positive cell” value in assay [6] (exposure to citralva, versus control) is recorded as “significantly reduced”.
